± gives the uncertainty stated by the source.
Experiment: xn = mol fraction of the nth substance listed

CCCCOC(C)=O + Cc1ccccc1
viscosity [mPa·s], 101 kPa
Settings	293.15 K	298.15 K	303.15 K	308.15 K	313.15 K	318.15 K
x1 = 0.0478	–	0.552 ± 0.005	–	0.499 ± 0.004	–	–
x1 = 0.1494	–	0.556 ± 0.005	–	0.503 ± 0.004	–	–
x1 = 0.249	–	0.563 ± 0.005	–	0.509 ± 0.004	–	–
x1 = 0.348	–	0.571 ± 0.005	–	0.515 ± 0.004	–	–
x1 = 0.4469	–	0.581 ± 0.005	–	0.523 ± 0.004	–	–
x1 = 0.501	–	0.587 ± 0.005	–	0.528 ± 0.005	–	–
x1 = 0.5488	–	0.593 ± 0.005	–	0.532 ± 0.005	–	–
x1 = 0.6468	–	0.607 ± 0.005	–	0.543 ± 0.005	–	–
x1 = 0.7365	–	0.621 ± 0.005	–	0.554 ± 0.005	–	–
x1 = 0.8683	–	0.645 ± 0.005	–	0.572 ± 0.005	–	–
x1 = 0.9671	–	0.666 ± 0.005	–	0.588 ± 0.005	–	–
x2 = 0.1024	0.7105 ± 0.0073	0.6642 ± 0.0069	0.6223 ± 0.0066	0.5852 ± 0.0064	0.5502 ± 0.0062	0.5173 ± 0.006
x2 = 0.205	0.6942 ± 0.007	0.6504 ± 0.0067	0.6104 ± 0.0065	0.5742 ± 0.0062	0.5405 ± 0.006	0.5084 ± 0.0058
x2 = 0.3107	0.6786 ± 0.0068	0.6362 ± 0.0065	0.5973 ± 0.0063	0.5624 ± 0.0061	0.5294 ± 0.0059	0.4996 ± 0.0057
x2 = 0.4031	0.6661 ± 0.0066	0.6247 ± 0.0064	0.587 ± 0.0061	0.5526 ± 0.0059	0.5208 ± 0.0058	0.4908 ± 0.0056
x2 = 0.4615	0.6566 ± 0.0065	0.6161 ± 0.0063	0.579 ± 0.0061	0.546 ± 0.0059	0.514 ± 0.0057	0.4858 ± 0.0055
x2 = 0.5069	0.6517 ± 0.0065	0.6115 ± 0.0062	0.5746 ± 0.006	0.5408 ± 0.0058	0.5103 ± 0.0056	0.4814 ± 0.0055
x2 = 0.5564	0.6439 ± 0.0064	0.6045 ± 0.0061	0.5683 ± 0.0059	0.5352 ± 0.0058	0.5051 ± 0.0056	0.4769 ± 0.0054
x2 = 0.614	0.6371 ± 0.0063	0.5984 ± 0.0061	0.5628 ± 0.0059	0.5301 ± 0.0057	0.5003 ± 0.0055	0.4725 ± 0.0054
x2 = 0.7101	0.6252 ± 0.0062	0.5864 ± 0.006	0.5515 ± 0.0058	0.5197 ± 0.0056	0.4913 ± 0.0055	0.4644 ± 0.0053
x2 = 0.8103	0.6123 ± 0.006	0.5753 ± 0.0058	0.5419 ± 0.0057	0.5103 ± 0.0055	0.4833 ± 0.0054	0.4562 ± 0.0052
x2 = 0.908	0.6017 ± 0.006	0.5667 ± 0.0058	0.5337 ± 0.0056	0.5035 ± 0.0054	0.4761 ± 0.0053	0.4496 ± 0.0052

Oc1ccccc1Cl + CCNc1ccccc1
viscosity [mPa·s], 101 kPa
Settings	x1 = 0.1027	x1 = 0.2022	x1 = 0.3028	x1 = 0.4011	x1 = 0.5014	x1 = 0.6004	x1 = 0.7024	x1 = 0.7991	x1 = 0.8994
298 K	2.403 ± 0.062	2.916 ± 0.075	3.666 ± 0.094	4.186 ± 0.11	4.763 ± 0.12	5.01 ± 0.13	5.008 ± 0.13	4.647 ± 0.12	4.064 ± 0.1
303 K	2.117 ± 0.054	2.487 ± 0.064	3.051 ± 0.078	3.372 ± 0.086	3.807 ± 0.097	4.028 ± 0.1	3.972 ± 0.1	3.751 ± 0.096	3.335 ± 0.085
308 K	1.852 ± 0.048	2.161 ± 0.055	2.557 ± 0.066	2.828 ± 0.072	3.16 ± 0.081	3.314 ± 0.085	3.299 ± 0.084	3.134 ± 0.08	2.844 ± 0.073
313 K	1.673 ± 0.043	1.885 ± 0.048	2.206 ± 0.057	2.407 ± 0.062	2.662 ± 0.068	2.771 ± 0.071	2.782 ± 0.071	2.67 ± 0.068	2.452 ± 0.063
318 K	1.491 ± 0.038	1.67 ± 0.043	1.925 ± 0.049	2.166 ± 0.056	2.287 ± 0.059	2.372 ± 0.061	2.392 ± 0.061	2.317 ± 0.059	2.137 ± 0.055

CN1CCCN(C)C1=O + CCCCCCCCn1cc[n+](C)c1.[Cl-]
308.15 K, 100 kPa
Settings	viscosity [mPa·s]
x2 = 0.0999	7.275 ± 0.31
x2 = 0.2997	61.15 ± 2.6

CC(C)c1ccccc1 + CCCCO
viscosity [mPa·s], 101 kPa
Settings	298.15 K	303.15 K	308.15 K	313.15 K	318.15 K	323.15 K
x1 = 0.0989	2.069 ± 0.053	–	1.657 ± 0.043	–	–	–
x1 = 0.1844	1.723 ± 0.044	–	1.398 ± 0.036	–	–	–
x1 = 0.2877	1.417 ± 0.036	–	1.135 ± 0.029	–	–	–
x1 = 0.3941	1.188 ± 0.031	–	0.9456 ± 0.024	–	–	–
x1 = 0.5189	1.001 ± 0.026	–	0.8025 ± 0.021	–	–	–
x1 = 0.6544	0.8693 ± 0.022	–	0.7291 ± 0.019	–	–	–
x1 = 0.796	0.7776 ± 0.02	–	0.7157 ± 0.018	–	–	–
x2 = 0.1001	–	0.6982 ± 0.0056	0.6545 ± 0.0053	0.6143 ± 0.005	0.5795 ± 0.0047	0.5481 ± 0.0045
x2 = 0.1998	–	0.7295 ± 0.0056	0.6815 ± 0.0053	0.6366 ± 0.005	0.5969 ± 0.0047	0.5613 ± 0.0045
x2 = 0.3007	–	0.7788 ± 0.0058	0.7225 ± 0.0054	0.6725 ± 0.0051	0.6285 ± 0.0048	0.5885 ± 0.0046
x2 = 0.3997	–	0.8423 ± 0.0061	0.7784 ± 0.0057	0.7209 ± 0.0053	0.6696 ± 0.005	0.6249 ± 0.0047
x2 = 0.4999	–	0.9355 ± 0.0065	0.8588 ± 0.006	0.7901 ± 0.0056	0.7288 ± 0.0052	0.6767 ± 0.0049
x2 = 0.6	–	1.068 ± 0.0072	0.9725 ± 0.0066	0.8867 ± 0.0061	0.8131 ± 0.0056	0.7485 ± 0.0052
x2 = 0.6992	–	1.252 ± 0.0081	1.129 ± 0.0074	1.022 ± 0.0067	0.9275 ± 0.0062	0.848 ± 0.0057
x2 = 0.7999	–	1.474 ± 0.0093	1.323 ± 0.0084	1.187 ± 0.0076	1.068 ± 0.0069	0.9682 ± 0.0063
x2 = 0.9006	–	1.837 ± 0.011	1.629 ± 0.01	1.452 ± 0.009	1.298 ± 0.0081	1.168 ± 0.0073

Oc1ccccc1Cl + CC(C)=O
101 kPa
Settings	viscosity [mPa·s]
293.15 K, x1 = 0.09296	0.475 ± 0.005
293.15 K, x1 = 0.1779	0.611 ± 0.006
293.15 K, x1 = 0.3108	0.992 ± 0.01
293.15 K, x1 = 0.4089	1.376 ± 0.014
293.15 K, x1 = 0.5253	2.051 ± 0.021
293.15 K, x1 = 0.6914	3.17 ± 0.04
293.15 K, x1 = 0.8336	3.91 ± 0.05
298.15 K, x1 = 0.101	0.442 ± 0.011
298.15 K, x1 = 0.2004	0.644 ± 0.013
298.15 K, x1 = 0.2997	0.857 ± 0.014
298.15 K, x1 = 0.4006	1.217 ± 0.017
298.15 K, x1 = 0.5	1.666 ± 0.022
298.15 K, x1 = 0.5999	2.19 ± 0.027
298.15 K, x1 = 0.6997	2.712 ± 0.032
298.15 K, x1 = 0.7988	3.086 ± 0.036
298.15 K, x1 = 0.9003	3.303 ± 0.038
303.15 K, x1 = 0.09296	0.419 ± 0.005
303.15 K, x1 = 0.1779	0.569 ± 0.006
303.15 K, x1 = 0.3108	0.893 ± 0.009
303.15 K, x1 = 0.4089	1.199 ± 0.012
303.15 K, x1 = 0.5253	1.684 ± 0.017
303.15 K, x1 = 0.6914	2.4 ± 0.03
303.15 K, x1 = 0.8336	2.85 ± 0.03
313.15 K, x1 = 0.09296	0.382 ± 0.004
313.15 K, x1 = 0.1779	0.508 ± 0.005
313.15 K, x1 = 0.3108	0.777 ± 0.008
313.15 K, x1 = 0.4089	1.019 ± 0.01
313.15 K, x1 = 0.5253	1.369 ± 0.014
313.15 K, x1 = 0.6914	1.886 ± 0.019
313.15 K, x1 = 0.8336	2.165 ± 0.022
323.15 K, x1 = 0.09296	0.3515 ± 0.0039
323.15 K, x1 = 0.1779	0.465 ± 0.005
323.15 K, x1 = 0.3108	0.687 ± 0.007
323.15 K, x1 = 0.4089	0.893 ± 0.009
323.15 K, x1 = 0.5253	1.154 ± 0.011
323.15 K, x1 = 0.6914	1.527 ± 0.015
323.15 K, x1 = 0.8336	1.735 ± 0.017
